System: HeLa cells
Experiment: In vitro efficacy of mFLuc mRNA-encapsulated lipid nanoparticles, luminescence
Type: cell-based
Conditions: 20 ng mFLuc-encapsulated LNP, 24 hours
Protocol: To determine the efficacy of mRNA-encapsulated lipid nanoparticles in vitro, screening was performed using lipid nanoparticles synthesized with various amine head groups.
The test was conducted by treating 20 ng of mFLuc (SEQ ID NO: 1)-encapsulated lipid nanoparticles into HeLa cells using each lipid nanoparticle synthesized with various amine headgroups (Compounds 1, 2, 4, and 5). The luminescence intensity was measured at 24 hours.

| Structure (SMILES) | Relative luminescence mean value | expression effect (luminescence intensity), in words |
| --- | --- | --- |
| CCCCCC/C=C\COC(=O)CCCCCCCCN(CCCCCCCCC(=O)OC/C=C\CCCCCC)CCCN1CCN(CCCN(CCCCCCCCC(=O)OC/C=C\CCCCCC)CCCCCCCCC(=O)OC/C=C\CCCCCC)CC1 [Compound 4] | 39970.75 |  |
| CCCCCC/C=C\COC(=O)CCCCCCCCN(CCCCCCCCC(=O)OC/C=C\CCCCCC)CCN1CCN(CCCCCCCCC(=O)OC/C=C\CCCCCC)CC1 [Compound 5] | 1022327.75 | highest expression effect |
